This is an account of results in PMC4750701, “Role of Mitochondrial RNA Polymerase in the Toxicity of Nucleotide Inhibitors of Hepatitis C Virus” (Antimicrobial Agents and Chemotherapy, 2016).

For data set [1], the system named is RNA transcription products from PolI (preribosome), PolII (myc), and PolRMT (ATP6) in PC-3 cells. As to the kind of experiment: RNA transcripts in PC-3 cells by RT-PCR. It counts as cell-based, human. Particulars: 5 μM, 1-day treatment. How it is done: CX-5461, a known specific RNA PolI inhibitor, was used as the positive control ([25]). The growth medium was aspirated and replaced with 200 μl of 100 μM BMS-986094, 5 μM CX-5461, or DMSO control prepared in growth medium. At selected time points (0.5, 1, 4, 8, and 24 h), duplicate wells of the compounds and DMSO control were aspirated, the cells were washed 1× with PBS (pH 7.4), and 100 μl of RNA lysis buffer was added (Promega, Sunnyvale, CA). RNA was purified using the Wizard SV 96 total RNA isolation kit (Promega) and eluted in 100 μl of nuclease-free water. The TaqMan RNA-to-Ct 1-step kit (ABI/Life Technologies) was used for reverse transcription-quantitative PCR (RT-qPCR) amplification and quantification, using the 7900HT Fast real-time PCR system (ABI) under the following conditions: 15 min at 48°C for reverse transcription and 10 min at 95°C for activation, followed by 40 cycles of 15 s at 95°C for denaturation and 1 min at 60°C for annealing and extension. […] Transcripts were quantified relative to the standard curves, and the results expressed as the percentages of the average value of DMSO control wells.

Another data set deals with T1, RNA PolII (Homo sapiens, UniProt P24928+P30876).
T1 construct: purchased as part of the HeLaScribe nuclear extract in vitro transcription system kit; purchased Promega (Madison, WI); host or cells: HeLa nuclear extract (endogenous enzyme)
As to the kind of experiment: Inhibition of RNA PolII (HeLaScribe nuclear extract transcription). It counts as biochemical. Particulars: nucleotide analogs (Table 6); read-out: Mean IC50 ± SD for RNA PolII. The source says: Activated fish sperm DNA was purchased from USB/Affymetrix (Santa Clara, CA) and used as a template for the DNA polymerases alpha, beta, and gamma. The DNA template used in the RNA Pol II assay was a 1,188-bp restriction fragment containing the cytomegalovirus (CMV) immediate early promoter (Promega, Madison, WI). The RNA and DNA oligonucleotides used in the mitochondrial RNA polymerase assay (see Table S1 in the supplemental material) were synthesized and PAGE purified by Thermo Scientific/Dharmacon (Lafayette, CO). RNA primer R12 was 5′-^32P-phosphorylated with [γ-^32P]ATP (3,000 Ci/mmol) and T4 kinase (New England BioLabs, Ipswich, MA).
(§1) Human DNA polymerase alpha, isolated from HeLa cell extracts, was from CHIMERx (Madison, WI). Recombinant human DNA polymerase beta, expressed in E. coli, was a gift from Zucai Suo at The Ohio State University. Recombinant human DNA polymerase gamma (including both the large subunit and the small subunit) was cloned, expressed, and purified from insect cells by Gilead Sciences (Foster City, CA) ([13]). RNA PolII was purchased as part of the HeLaScribe nuclear extract in vitro transcription system kit from Promega (Madison, WI). The recombinant human PolRMT and the transcription factors mitochondrial transcription factor A (mtTFA) and B2 (mtTFB2) were purchased from Enzymax (Lexington, KY). FLAG epitope-tagged RNA PolI and PolIII complexes were isolated from rat NSN1 cells and HeLa cells, respectively ([17], [18]). The inhibition of DNA polymerases alpha, beta, and gamma, PolRMT, and PolII and the rate of single-nucleotide incorporation by PolRMT have been described previously in detail ([12], [13], [19]). Inhibition of RNA PolI and PolIII was studied using published methods ([20], [21]). All concentrations were final unless noted otherwise. For the RNA PolI inhibition assay, a reaction mixture containing 50 mM HEPES (pH 7.9), 20% glycerol, 100 mM KCl, 1 mM dithiothreitol (DTT), 50 μg/ml calf thymus DNA, 4 mM MgCl2, 5 or 80 μM UTP (0.25 μl of [5,6-^3H]UTP, >25 Ci/mmol; PerkinElmer), 1 mM noncompeting NTP, competing NTP (5 μM for GTP, CTP, and UTP and 25 μM for ATP), and various concentrations (0 to 500 μM) of NTP analogs was preincubated at 30°C for 5 min. […] After incubation at 30°C for 20 min to 1 h, the reactions were terminated by pipetting the mixtures onto DEAE-cellulose discs (DE81; Whatman), and the products analyzed as described previously ([20], [21]).

Another data set addresses T2, recombinant human PolRMT (Homo sapiens, UniProt O00411).
T2 construct: purchased Enzymax (Lexington, KY)
The data set can be described thus: Inhibition of PolRMT-catalyzed RNA synthesis. It counts as biochemical. Particulars: read-out: Mean IC50 ± SD for PolRMT.
From the text: Activated fish sperm DNA was purchased from USB/Affymetrix (Santa Clara, CA) and used as a template for the DNA polymerases alpha, beta, and gamma. […] The RNA and DNA oligonucleotides used in the mitochondrial RNA polymerase assay (see Table S1 in the supplemental material) were synthesized and PAGE purified by Thermo Scientific/Dharmacon (Lafayette, CO). RNA primer R12 was 5′-^32P-phosphorylated with [γ-^32P]ATP (3,000 Ci/mmol) and T4 kinase (New England BioLabs, Ipswich, MA).
as §1, with “otherwise.” for “otherwise. For the RNA PolI inhibition assay, a reaction mixture containing 50 mM HEPES (pH 7.9), 20% glycerol, 100 mM KCl, 1 mM dithiothreitol (DTT), 50 μg/ml calf thymus DNA, 4 mM MgCl2, 5 or 80 μM UTP (0.25 μl of [5,6-^3H]UTP, >25 Ci/mmol; PerkinElmer), 1 mM noncompeting NTP, competing NTP (5 μM for GTP, CTP, and UTP and 25 μM for ATP), and various concentrations (0 to 500 μM) of NTP analogs was preincubated at 30°C for 5 min.”

For another data set, the target named is T3, RNA PolI (Rattus norvegicus, UniProt O54889).
T3 construct: complexes were isolated from rat NSN1 cells and HeLa cells, respectively; made in house; host or cells: rat NSN1 cells expressing a FLAG-tagged Pol I subunit
T3 sequence (O54889 whole entry): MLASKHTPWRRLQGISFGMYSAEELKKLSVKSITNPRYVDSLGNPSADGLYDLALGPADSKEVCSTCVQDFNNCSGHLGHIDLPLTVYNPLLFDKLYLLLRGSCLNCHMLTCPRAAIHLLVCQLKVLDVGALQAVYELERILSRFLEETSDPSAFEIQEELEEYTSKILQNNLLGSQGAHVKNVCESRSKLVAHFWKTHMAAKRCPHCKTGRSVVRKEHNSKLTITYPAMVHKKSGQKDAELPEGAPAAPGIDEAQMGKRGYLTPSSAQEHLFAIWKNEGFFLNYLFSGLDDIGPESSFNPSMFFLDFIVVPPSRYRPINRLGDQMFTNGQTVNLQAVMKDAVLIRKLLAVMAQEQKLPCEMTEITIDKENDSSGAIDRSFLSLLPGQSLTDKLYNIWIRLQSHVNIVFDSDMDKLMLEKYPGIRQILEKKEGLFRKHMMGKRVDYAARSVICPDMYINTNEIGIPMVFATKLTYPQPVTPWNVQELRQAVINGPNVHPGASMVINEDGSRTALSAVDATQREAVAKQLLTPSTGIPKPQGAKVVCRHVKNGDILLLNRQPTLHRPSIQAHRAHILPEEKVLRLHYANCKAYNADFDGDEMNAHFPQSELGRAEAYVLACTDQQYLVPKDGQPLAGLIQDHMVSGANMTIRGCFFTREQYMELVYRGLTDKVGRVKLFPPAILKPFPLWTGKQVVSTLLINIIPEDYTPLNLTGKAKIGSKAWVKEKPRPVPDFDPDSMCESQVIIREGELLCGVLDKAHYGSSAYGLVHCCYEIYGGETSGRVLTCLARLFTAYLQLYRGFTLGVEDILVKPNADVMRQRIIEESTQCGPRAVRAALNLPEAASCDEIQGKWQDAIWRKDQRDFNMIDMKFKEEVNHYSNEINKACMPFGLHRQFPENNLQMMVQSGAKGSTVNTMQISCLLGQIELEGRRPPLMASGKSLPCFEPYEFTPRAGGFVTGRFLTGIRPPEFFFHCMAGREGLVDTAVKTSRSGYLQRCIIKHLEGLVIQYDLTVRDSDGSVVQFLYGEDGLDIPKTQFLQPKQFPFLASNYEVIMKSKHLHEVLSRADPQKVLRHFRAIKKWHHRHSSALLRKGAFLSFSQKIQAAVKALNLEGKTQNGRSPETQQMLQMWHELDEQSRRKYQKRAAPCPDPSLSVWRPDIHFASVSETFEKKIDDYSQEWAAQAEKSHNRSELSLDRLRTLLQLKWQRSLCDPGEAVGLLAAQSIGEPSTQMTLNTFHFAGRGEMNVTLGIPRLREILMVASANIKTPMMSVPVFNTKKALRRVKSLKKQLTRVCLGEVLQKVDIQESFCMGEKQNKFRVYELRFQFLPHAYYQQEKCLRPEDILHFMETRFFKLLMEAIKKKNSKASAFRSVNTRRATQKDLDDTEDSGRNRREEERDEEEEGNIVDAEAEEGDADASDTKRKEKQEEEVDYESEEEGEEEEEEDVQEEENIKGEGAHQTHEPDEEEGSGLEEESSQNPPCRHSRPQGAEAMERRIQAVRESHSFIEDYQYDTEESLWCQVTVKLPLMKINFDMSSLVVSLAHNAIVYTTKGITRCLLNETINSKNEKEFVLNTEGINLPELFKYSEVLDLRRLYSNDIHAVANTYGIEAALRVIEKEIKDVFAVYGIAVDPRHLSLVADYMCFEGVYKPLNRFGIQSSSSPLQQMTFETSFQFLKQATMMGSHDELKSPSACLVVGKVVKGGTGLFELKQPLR
The data set can be described thus: RNA PolI inhibition assay. It counts as biochemical. Particulars: NTP analogs 0 to 500 μM; read-out: Mean IC50 ± SD for RNA PolI.
From the text: as §1

The next data set concerns the target T4, RNA PolIII (Homo sapiens, UniProt O14802+Q9NW08).
T4 construct: complexes were isolated from rat NSN1 cells and HeLa cells, respectively; made in house; host or cells: HeLa cells expressing a FLAG-tagged Pol III subunit
As to the kind of experiment: RNA PolIII inhibition assay. It counts as biochemical. The settings on record: competing NTP 100 μM CTP and GTP, 500 μM ATP; read-out: Mean IC50 ± SD for RNA PolIII.
From the text: as §1
The RNA PolIII inhibition assay was conducted in a similar manner, except that the concentrations of the competing NTP were modified to 100 μM for CTP and GTP and 500 μM for ATP to compensate for the low assay signal at lower NTP concentrations.

Data set [2] is described as follows: Bone marrow erythroid progenitor colony assay, 14 days. The settings on record: human, human bone marrow erythroid progenitors, read-out: Mean CC50 ± SD in Bone marrow cells Erythroid. It counts as cell-based, human.
A short description of data set [3]: Bone marrow myeloid progenitor colony assay, 14 days. It counts as cell-based, human. The settings on record: human, human bone marrow myeloid progenitors, read-out: Mean CC50 ± SD in Bone marrow cells Myeloid.
Data set [4] in a line: Cytotoxicity in primary rat neonatal cardiomyocytes, 5 days. In kind it is cell-based. The settings on record: Sprague Dawley, primary rat neonatal cardiomyocytes, 5-day treatment, read-out: CC50 (mean ± standard deviation) in primary rat cardiomyocytes.
Data set [5] has as its system mitochondrial DNA-encoded cytochrome c oxidase (COX-1). The data set can be described thus: Mitochondrial protein synthesis assay (COX-1, MitoBiogenesis in-cell ELISA) in PC-3 cells. In kind it is cell-based, human. The settings on record: PC-3 cells, 5-day treatments. As for the experimental part: (§2) PC-3 cells were treated with the compounds for 5 days and analyzed with the MitoTox MitoBiogenesis in-cell enzyme-linked immunosorbent assay (ELISA) kit (MitoSciences/Abcam, Eugene, Oregon) as described previously ([13]). The assay uses quantitative immunocytochemistry to measure the protein levels of nuclear DNA-encoded succinate dehydrogenase (SDH-A; complex II [succinate dehydrogenase]) and mitochondrial DNA-encoded cytochrome c oxidase (COX-1; complex IV [cytochrome c oxidase]) in cultured cells.

For data set [6], the system named is mitochondrial DNA-encoded cytochrome c oxidase (COX-1; complex IV) protein level. Described as above. It counts as cell-based, human. Particulars: human; PC-3 cells, COX-1, 5 days; read-out: Mean CC50 ± SD causing Mitochondrial toxicity: Protein synthesis. How it is done: as §2
The subject of data set [7] is nuclear DNA-encoded succinate dehydrogenase (SDH-A; complex II) protein level. The data set can be described thus: Nuclear protein synthesis (SDH-A, MitoBiogenesis in-cell ELISA) in PC-3 cells. It counts as cell-based, human. Particulars: human, read-out: Mean CC50 ± SD causing General cellular toxicity: Protein synthesis. How it is done: as §2
The nature of data set [8]: Cytotoxicity in quiescent PBMCs, 5 days. The settings on record: human, quiescent PBMCs.
Protocol: (§3) Human peripheral blood mononuclear cells (PBMCs) were isolated from human buffy coats obtained from healthy volunteers (Stanford Blood Bank, Palo Alto, CA) using standard Ficoll separation and stimulated as described elsewhere ([13]) and were tested at both quiescent and stimulated stages. Quiescent PBMCs were stimulated with 10 units per ml of recombinant human interleukin 2 (hIL-2) and 1 μg per ml phytohemagglutinin P (PHA-P) for 48 h prior to drug treatment.
(§4) All cells were cultured at 37°C in a 5% CO2 incubator with 90% humidity unless noted otherwise. […] All cells were treated with the various compounds for 5 days, except for human erythroid and myeloid progenitors, which were treated for 14 days. After the incubation period, cell viability was measured by the addition of CellTiter Glo viability reagents (Promega, Madison, WI). The luminescence signal was quantified on an Envision luminescence plate reader (PerkinElmer, Waltham, MA) after incubation of the reagents and cells for 10 min at room temperature. […] CC50 values were calculated as the average of the results of three or four independent experiments.
(§5) Human peripheral blood mononuclear cells (PBMCs) were isolated from human buffy coats
(§6) obtained from normal healthy volunteers (Stanford Medical School Blood Center, Palo Alto,
(§7) CA). Total PBMCs were isolated from buffy coats using standard Ficoll separation and sterile
(§8) cellular isolation techniques performed in a bio-safety cabinet (1). Except where noted, the
(§9) procedure was carried out at room temperature. The final PBMCs pellet was resuspended in
(§10) Logan, UT), penicillin 100 units/mL and streptomycin 100 µg/mL (Gibco). For quiescent
(§11) PBMCs cultures, total cells were seeded in 96-well plates at a density of 1 x 10^6 cells per well, followed by immediate drug treatment. Stimulated PBMCs cultures were set up by seeding the freshly isolated PBMCs in T-175cm2 tissue culture flasks in 100 mL of RPMI containing the same components as the ones used for the quiescent PBMCs but with the addition of 10 units per mL of recombinant human interleukin-2 (hIL-2, Roche, Indianapolis, IN), and 1 µg per mL phytohemagglutinin-P (PHA-P, Sigma-Aldrich, St. Louis, MO) at density of 2  10^6 cells per mL for 48 hours at 37C in a 5% CO2 incubator with 90% humidity, prior to drug treatment.
The nature of data set [9]: Cytotoxicity in stimulated PBMCs, 5 days. Particulars: human, stimulated PBMCs.
Protocol: as §3, §4, §5, §6, §7, §8, §9, §10, §11
Data set [10] is described as follows: Cytotoxicity in MT-4 T-cells, 5-day treatment. The settings on record: human, MT-4 cells.
Protocol: (§12) Primary human hepatocytes were from Bioreclamation IVT (Westbury, NY) or Life Technologies (Carlsbad, CA).
as §4
The nature of data set [11]: Cytotoxicity in MRC5 fibroblasts, 5-day treatment. The settings on record: human, MRC5 fibroblasts.
Protocol: as §4
Cell Culture and Cytotoxicity Studies
(§13) The Huh-7 cells were maintained in growth medium containing Dulbecco's Modified Eagle
(§14) Medium (DMEM, Cellgro) supplemented with 1% Nonessential Amino Acids (NEAA, Cellgro,
(§15) Manassas, VA), 10% fetal bovine serum (FBS, HyClone, Logan, UT) and 1% Penicillin-
(§16) streptomycin-glutamate (PSG, Invitrogen, Carlsbad, CA). The cells were passaged twice weekly
(§17) and maintained at 90% confluence densities.
(§18) The HepG2 cells were maintained in Eagle’s Minimum Essential Medium (EMEM) from ATCC
(§19) (Manassas, VA) supplemented with 10% FBS, 100 units/mL penicillin and 100 µg/mL
(§20) streptomycin (P/S) (Gibco). The cells were passaged twice weekly and maintained at 90%
(§21) The PC-3 cells were maintained in Kaighn’s F12 medium (Gibco, Carlsbad, CA) supplemented
(§22) with 10% FBS (HyClone, Logan, UT), 100 units/mL penicillin and 100 µg/mL streptomycin
(§23) (P/S) (Gibco). The cells were passaged twice weekly and maintained at 90% confluence. Cells
(§24) between passages 4 and 15 were used in the assays.
(§25) The fibroblast cell line MRC-5 cell line derived from normal lung tissue, was purchased from
(§26) ATCC (Manassas, VA) and cultured in Minimum Essential Medium (MEM) (Cellgro, Manassas,
(§27) VA) supplemented with 10% FBS (HyClone, Logan, UT) and 1% PSG (Invitrogen). The cells
(§28) were passaged twice weekly and maintained at 90% confluence densities.
Data set [12] is described as follows: Cytotoxicity in primary human hepatocytes, 5 days. The settings on record: human, primary human hepatocytes.
Protocol: as §12, §4
Data set [13] is described as follows: Cytotoxicity / ATP level in PC-3 cells, 5-day treatment. Particulars: human, PC-3 cells.
Protocol: as §4
Cell Culture and Cytotoxicity Studies
as §13, §14, §15, §16, §17, §18, §19, §20, §21, §22, §23, §24, §25, §26, §27, §28
A short description of data set [14]: Cytotoxicity in HepG2 (galactose) cells, 5-day treatment. The settings on record: human, HepG2 cells (galactose).
Protocol: as §4
Cell Culture and Cytotoxicity Studies
as §13, §14, §15, §16, §17, §18, §19, §20, §21, §22, §23, §24, §25, §26, §27, §28
Data set [15] is described as follows: Cytotoxicity in Huh7 cells, 5-day treatment (CellTiter Glo). Particulars: human, Huh-7 cells.
Protocol: as §4
Cell Culture and Cytotoxicity Studies
as §13, §14, §15, §16, §17, §18, §19, §20, §21, §22, §23, §24, §25, §26, §27, §28
Data set [16] deals with mitochondrial spare respiratory capacity in PC-3 cells. The data set can be described thus: Oxygen consumption rate / spare respiratory capacity in PC-3 cells. The settings on record: PC-3 cells, 3-day treatments.
Protocol: (§29) Mitochondrial respiration was monitored by measuring the rate of oxygen consumption (OCR) of PC-3 cells after 3-day treatments with the compounds, using a Seahorse extracellular flux analyzer (XF^e-96) based on published protocols ([22][–][24]). The optimal cell seeding was determined by measuring the basal OCR of PC-3 cells that were seeded at different densities of 2.5 × 10^3, 5 × 10^3, 7.5 × 10^3, and 10 × 10^3 cells/well in XF 96-well plates (Seahorse Bioscience, North Billerica, MA) and incubated with 0.5% dimethyl sulfoxide (DMSO) for 3 days. […] Each reagent in the Mito Stress test kit (Seahorse Biosciences), i.e., ATP synthase inhibitor oligomycin, mitochondrial uncoupler carbonyl cyanide-4-(trifluoromethoxy)phenylhydrazone (FCCP), and a fixed-ratio mixture of the mitochondrial complex I (NADH dehydrogenase) inhibitor rotenone and the complex III (CoQH2-cytochrome c reductase) inhibitor antimycin A, was titrated. The lowest concentration that reached the maximal effect was chosen for each reagent. The OCR signals were normalized by cell numbers using DNA content determined by Hoechst's stain as described below.
(§30) PC-3 cells were seeded at a density of 5 × 10^3 cells/well in XF 96-well plates and incubated with the compounds for 3 days. On the day of the assay, the cell medium was replaced with XF assay medium (pH 7.4) containing 10 mM glucose and 1 mM freshly prepared pyruvate. Mitochondrial respiration was monitored by measuring OCR on a Seahorse extracellular flux analyzer (XF^e-96). All concentrations listed are the final concentration after mixing unless noted otherwise. […] Spare respiratory capacity was obtained by subtracting the rate of basal respiration from the rate of maximal respiration.
(§31) The cells were lysed by freezing at −80°C for >2 h. […] In parallel, another set of cells was treated with the compounds for 3 days and the ATP levels were measured using CellTiter Glo viability reagents (Promega, Madison, WI).
The subject of data set [17] is mitochondrial spare respiratory capacity. Described as above. The settings on record: human, PC-3 cells, pH 7.4.
Protocol: as §29, §30, §31

Read-outs that look alike come from different tables or passages of the source.

T2 sequence (O00411 42-1230): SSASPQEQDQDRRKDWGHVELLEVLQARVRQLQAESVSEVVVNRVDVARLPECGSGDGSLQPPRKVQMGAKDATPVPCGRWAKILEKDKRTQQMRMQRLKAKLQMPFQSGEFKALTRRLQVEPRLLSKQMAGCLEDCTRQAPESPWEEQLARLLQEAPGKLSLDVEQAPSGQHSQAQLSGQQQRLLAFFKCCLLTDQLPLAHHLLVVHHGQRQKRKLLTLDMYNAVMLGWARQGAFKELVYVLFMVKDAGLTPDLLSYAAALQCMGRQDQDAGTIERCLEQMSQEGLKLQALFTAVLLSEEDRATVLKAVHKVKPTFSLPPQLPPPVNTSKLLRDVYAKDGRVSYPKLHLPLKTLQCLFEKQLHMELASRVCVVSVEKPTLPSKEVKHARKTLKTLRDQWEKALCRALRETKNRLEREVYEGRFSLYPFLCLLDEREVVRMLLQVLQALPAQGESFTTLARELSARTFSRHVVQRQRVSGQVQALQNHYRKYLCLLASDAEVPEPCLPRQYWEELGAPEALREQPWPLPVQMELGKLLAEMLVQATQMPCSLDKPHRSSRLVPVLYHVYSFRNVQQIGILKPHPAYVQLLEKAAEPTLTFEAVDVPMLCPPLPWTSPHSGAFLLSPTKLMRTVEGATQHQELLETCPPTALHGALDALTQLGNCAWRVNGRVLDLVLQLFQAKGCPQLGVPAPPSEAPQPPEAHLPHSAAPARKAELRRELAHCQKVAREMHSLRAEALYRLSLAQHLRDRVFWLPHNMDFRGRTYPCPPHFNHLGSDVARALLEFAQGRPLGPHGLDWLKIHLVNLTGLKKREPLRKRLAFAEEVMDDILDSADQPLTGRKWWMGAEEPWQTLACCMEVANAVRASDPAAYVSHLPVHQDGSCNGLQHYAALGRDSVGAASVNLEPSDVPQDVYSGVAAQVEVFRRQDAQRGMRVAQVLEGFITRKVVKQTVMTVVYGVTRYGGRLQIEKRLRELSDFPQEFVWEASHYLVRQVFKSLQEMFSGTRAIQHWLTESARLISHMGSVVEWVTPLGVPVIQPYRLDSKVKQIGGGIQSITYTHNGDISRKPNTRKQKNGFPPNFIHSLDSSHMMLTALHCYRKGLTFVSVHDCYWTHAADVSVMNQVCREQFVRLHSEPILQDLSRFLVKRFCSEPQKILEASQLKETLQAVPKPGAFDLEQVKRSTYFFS

As to `Cc1cnc(CNC(=O)c2c(=O)c3ccc(N4CCCN(C)CC4)nc3n3c2sc2ccccc23)cn1` [CX-5461], in data set [1], the “relative levels of RNA transcripts (pre-rRNA, myc, mitochondrial ATP6)” value was “selectively decreased pre-rRNA but had no effect on the levels of myc and mitochondrial ATP6 RNAs”.
In the case of `Nc1nc2c(ncn2[C@@H]2O[C@H](COP(=O)(O)OP(=O)(O)OP(=O)(O)O)C[C@H]2O)c(=O)[nH]1` [3′deoxyGTP], the IC50 was above 500 µM on RNA PolII; 4.2 ± 1.4 µM at recombinant human PolRMT (nucleotide analogs (Table 6)); 4.2 ± 1.4 µM at recombinant human PolRMT (triphosphate form of the compound tested (Table 4)); 25 ± 2 µM on RNA PolI; 104 ± 20 µM on RNA PolIII.
As for `COc1ccc(C[C@H](N)C(=O)N[C@H]2[C@@H](O)[C@H](n3cnc4c(N(C)C)ncnc43)O[C@@H]2CO)cc1` [Puromycin], the cytotoxic concentration (CC50) at 14 days in [2] was determined as 360 ± 60 nM; in data set [3], 270 ± 40 nM. Moreover, the CC50 at 5 days in [4] is 330 ± 50 nM; in data set [6], 120 ± 10 nM; in data set [7] it was 150 ± 10 nM; in data set [8], 4.5 ± 1.9 µM; in [9] it was 1000 ± 200 nM; in data set [10], 160 ± 60 nM. Besides, the CC50 at 5 days was determined as 240 ± 50 nM in data set [11]; 1900 ± 800 nM in data set [12]; 220 ± 70 nM in data set [13]; 650 ± 180 nM in data set [14]; 520 ± 190 nM in data set [15]. In addition, in [5], the “selectivity of effect on COX-1 versus SDH-A and ATP levels” value is “nonselective inhibitive effects on the COX-1, SDH-A, and ATP levels”. In addition, the “selectivity of effect on spare respiratory capacity versus DNA and ATP levels” value in data set [16] was “nonselective inhibition of the spare respiratory capacity, DNA, and ATP levels”. The compound also displayed a CC50 at 3 days in [17] of 490 ± 110 nM.
`C[C@@]1(O)[C@H](O)[C@@H](COP(=O)(O)OP(=O)(O)OP(=O)(O)O)O[C@H]1n1ccc(=O)[nH]c1=O` [2′CMeUTP]: the IC50 on RNA PolII is above 500 µM; on recombinant human PolRMT (nucleotide analogs (Table 6)), 240 ± 30 µM; on RNA PolI, 690 ± 230 µM; on RNA PolIII, above 500 µM.

The IC50 is the concentration needed to halve the response being measured. The CC50 is the concentration giving 50% cytotoxicity.
